Test results taken from US11254668B2, “Pyrazolo[1,5-A]pyrazin-4-yl and related derivatives” (Pfizer Inc., priority 2017, dated 2022).

Key:
Type in all cases: biochemical
JAK1 = JAK1 (Homo sapiens (Human), UniProt P23458); test: JAK Caliper Enzyme Assay at 1 mM ATP, JAK1
In short: (§1)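 Recombinant human kinase domains phosphorylate a fluorescent synthetic peptide at 1 mM ATP, room temperature, with enzyme and time tuned for 20-30% conversion; EDTA-stopped. Product/substrate separated by microfluidic mobility shift; percent effect versus DMSO and positive controls fitted to IC50 (nM).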

JAK2 = JAK2 (Homo sapiens (Human), UniProt O60674); test: JAK Caliper Enzyme Assay at 1 mM ATP, JAK2
Chain of JAK2 (O60674 849-1124): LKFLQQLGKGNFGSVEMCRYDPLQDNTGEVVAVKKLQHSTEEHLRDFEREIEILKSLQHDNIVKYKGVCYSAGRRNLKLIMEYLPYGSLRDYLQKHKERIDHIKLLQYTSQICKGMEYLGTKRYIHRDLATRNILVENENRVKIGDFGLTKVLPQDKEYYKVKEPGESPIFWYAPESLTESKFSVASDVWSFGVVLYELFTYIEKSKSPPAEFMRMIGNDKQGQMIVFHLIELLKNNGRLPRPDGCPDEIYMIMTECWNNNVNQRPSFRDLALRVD
In short: (§2)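 Read-out is Caliper LabChip mobility-shift separation of phosphorylated from unphosphorylated fluorescent peptide after EDTA termination. Each JAK kinase domain (human, recombinant) runs at 1 mM ATP at room temperature, adjusted for 20–30% turnover. Inhibition is normalized to DMSO and positive-control wells and plotted against concentration.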

JAK3 = JAK3 (Homo sapiens (Human), UniProt P52333); test: JAK Caliper Enzyme Assay at 1 mM ATP, JAK3
Chain of JAK3 (P52333 822-1111): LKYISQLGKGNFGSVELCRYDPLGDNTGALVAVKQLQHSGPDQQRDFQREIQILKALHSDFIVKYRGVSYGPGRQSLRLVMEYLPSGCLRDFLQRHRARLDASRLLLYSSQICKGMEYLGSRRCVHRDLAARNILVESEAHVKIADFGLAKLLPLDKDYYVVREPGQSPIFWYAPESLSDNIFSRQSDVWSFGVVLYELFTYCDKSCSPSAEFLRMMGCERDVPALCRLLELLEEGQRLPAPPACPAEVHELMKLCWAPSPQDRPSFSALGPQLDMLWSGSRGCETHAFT
In short: as §1

TYK2 = TYK2 (Homo sapiens (Human), UniProt P29597); test: JAK Caliper Enzyme Assay at 1 mM ATP, TYK2
Chain of TYK2 (P29597 897-1176): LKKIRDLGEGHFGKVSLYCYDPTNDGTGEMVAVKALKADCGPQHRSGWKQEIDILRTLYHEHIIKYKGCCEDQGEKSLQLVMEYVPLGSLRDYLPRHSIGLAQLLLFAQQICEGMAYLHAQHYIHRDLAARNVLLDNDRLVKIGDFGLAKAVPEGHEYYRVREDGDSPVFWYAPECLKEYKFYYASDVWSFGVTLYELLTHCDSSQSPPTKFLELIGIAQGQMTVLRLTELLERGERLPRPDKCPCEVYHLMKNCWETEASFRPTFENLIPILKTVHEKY
In short: as §2

Chain of JAK1 (P23458 875-1153): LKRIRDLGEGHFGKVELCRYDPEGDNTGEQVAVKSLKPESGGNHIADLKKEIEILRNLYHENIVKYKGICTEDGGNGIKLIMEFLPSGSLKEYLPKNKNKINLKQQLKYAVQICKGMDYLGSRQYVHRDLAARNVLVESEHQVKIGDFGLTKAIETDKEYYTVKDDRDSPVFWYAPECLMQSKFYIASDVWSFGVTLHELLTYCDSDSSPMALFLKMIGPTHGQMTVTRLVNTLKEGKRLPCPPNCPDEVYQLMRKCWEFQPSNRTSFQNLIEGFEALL

Row | SMILES | IC50 (JAK1) [nM] | IC50 (JAK2) [nM] | IC50 (JAK3) [nM] | IC50 (TYK2) [nM]
1 | CCN1CC(CC#N)(n2ccc(-c3nc(-c4ccc(O)nc4)cc4ncccc34)n2)C1 [Example 184] | 4030 | 4030 | > 10000 | 221
2 | N#CCC1(n2ccc(-c3nc(-c4ccc(O)nc4)cc4ncccc34)n2)CN(C2CC(F)(F)C2)C1 [Example 185, [1-(3,3-difluorocyclobutyl)-3-{3-[7-(6-hydroxypyridin-3-yl)-1,6-naphthyridin-5-yl]-1H-pyrazol-1-yl}azetidin-3-yl]acetonitrile] | 2030 | 2070 | > 10000 | 88
3 | COc1ncccc1-c1cc2ncccc2c(-c2ccn(C3(CC#N)CN(S(C)(=O)=O)C3)n2)n1 [Example 187, [3-{3-[7-(2-methoxypyridin-3-yl)-1,6-naphthyridin-5-yl]-1H-pyrazol-1-yl}-1-(methylsulfonyl)azetidin-3-yl]acetonitrile] | > 10000 | > 10000 | > 10000 | 781
4 | COc1ccc(-c2cc3ncccc3c(-c3ccn(C4(CC#N)CN(CC(F)(F)F)C4)n3)n2)cn1 [Example 188, [3-{3-[7-(6-methoxypyridin-3-yl)-1,6-naphthyridin-5-yl]-1H-pyrazol-1-yl}-1-(2,2,2-trifluoroethyl)azetidin-3-yl]acetonitrile] | 2720 | 902 | > 10000 | 80
5 | COc1cc(-c2cc3ncccc3c(-c3ccn(C4(CC#N)CN(S(C)(=O)=O)C4)n3)n2)ccn1 [Example 189] | 8340 | 725 | > 10000 | 84
6 | N#CC[C@]1(n2ccc(-c3nc(-c4ccc(N)cn4)cc4ncccc34)n2)C[C@@H](C#N)C1 [Example 190, cis-3-{3-[7-(5-aminopyridin-2-yl)-1,6-naphthyridin-5-yl]-1H-pyrazol-1-yl}-3-(cyanomethyl)cyclobutanecarbonitrile] | 1310 | 596 | > 10000 | 55
7 | CS(=O)(=O)N1CC(CC#N)(n2ccc(-c3nc(-c4cccnc4N)cc4ncccc34)n2)C1 [Example 191] | 5060 | 931 | > 10000 | 75
8 | N#CCC1(n2ccc(-c3nc(-c4ccc(N)nc4)cc4ncccc34)n2)CN(CC(F)(F)F)C1 [Example 192] | 951 | 841 | > 10000 | 68
9 | CS(=O)(=O)N1CC(CC#N)(n2ccc(-c3nc(-c4cncc(N)c4)cc4ncccc34)n2)C1 [Example 193] | 5570 | 1680 | > 10000 | 147
10 | CS(=O)(=O)N1CC(CC#N)(n2ccc(-c3nc(-c4ccc(N)nc4)cc4ncccc34)n2)C1 [Example 194] | 843 | 436 | > 10000 | 45
11 | N#CC[C@]1(n2ccc(-c3nc(-c4ccc(N)nc4)cc4ncccc34)n2)C[C@@H](C#N)C1 [Example 195, cis-3-{3-[7-(6-aminopyridin-3-yl)-1,6-naphthyridin-5-yl]-1H-pyrazol-1-yl}-3-(cyanomethyl)cyclobutanecarbonitrile] | 50 | 31 | 2060 | 9
12 | N#CC[C@]1(n2ccc(-c3nc(-c4ccc(N)nc4)cc4ncccc34)n2)C[C@H](C#N)C1 [Example 196, trans-3-{3-[7-(6-aminopyridin-3-yl)-1,6-naphthyridin-5-yl]-1H-pyrazol-1-yl}-3-(cyanomethyl)cyclobutanecarbonitrile] | 488 | 233 | > 10000 | 45
13 | N#CCC1(n2ccc(-c3nc(-c4ccnc(N)c4)cc4ncccc34)n2)CN(CC(F)(F)F)C1 [Example 197] | 656 | 688 | > 10000 | 37
14 | N#CC[C@]1(n2ccc(-c3nc(-c4ccnc(N)c4)cc4ncccc34)n2)C[C@@H](C#N)C1 [Example 198, cis-3-{3-[7-(2-aminopyridin-4-yl)-1,6-naphthyridin-5-yl]-1H-pyrazol-1-yl}-3-(cyanomethyl)cyclobutanecarbonitrile] | 39 | 32 | 1930 | 7
15 | N#CCC1(n2ccc(-c3nc(-c4ccnc(N)c4)cc4ncccc34)n2)CC(C#N)C1 (stereo not drawn) [Example 199, trans-3-{3-[7-(2-aminopyridin-4-yl)-1,6-naphthyridin-5-yl]-1H-pyrazol-1-yl}-3-(cyanomethyl)cyclobutanecarbonitrile] | 337 | 199 | > 10000 | 20
16 | C[C@]1(C#N)C[C@](CC#N)(n2ccc(-c3nc(-c4ccnc(N)c4)cc4ncccc34)n2)C1 [Example 200, trans-3-{3-[7-(2-aminopyridin-4-yl)-1,6-naphthyridin-5-yl]-1H-pyrazol-1-yl}-3-(cyanomethyl)-1-methylcyclobutanecarbonitrile] | 3220 | 2970 | > 10000 | 573
17 | C[C@]1(C#N)C[C@@](CC#N)(n2ccc(-c3nc(-c4ccnc(N)c4)cc4ncccc34)n2)C1 [Example 201, cis-3-{3-[7-(2-aminopyridin-4-yl)-1,6-naphthyridin-5-yl]-1H-pyrazol-1-yl}-3-(cyanomethyl)-1-methylcyclobutanecarbonitrile] | 308 | 177 | > 10000 | 31
18 | CCOC(=O)Nc1cncc(-c2cc3ncccc3c(-c3ccn(C4(CC#N)CN(S(C)(=O)=O)C4)n3)n2)c1 [Example 202, ethyl [5-(5-{1-[3-(cyanomethyl)-1-(methylsulfonyl)azetidin-3-yl]-1H-pyrazol-3-yl}-1,6-naphthyridin-7-yl)pyridin-3-yl]carbamate] | > 10000 | > 10000 | > 10000 | 135
19 | CN(C)c1ccc(-c2cc3ncccc3c(-c3ccn(C4(CC#N)CN(S(C)(=O)=O)C4)n3)n2)cn1 [Example 203] | 264 | 86 | > 10000 | 14
20 | CS(=O)(=O)Nc1cncc(-c2cc3ncccc3c(-c3ccn(C4(CC#N)CN(S(C)(=O)=O)C4)n3)n2)c1 [Example 204, N-[5-(5-{1-[3-(cyanomethyl)-1-(methylsulfonyl)azetidin-3-yl]-1H-pyrazol-3-yl}-1,6-naphthyridin-7-yl)pyridin-3-yl]methanesulfonamide] | > 10000 | 6690 | > 10000 | 799
21 | CS(=O)(=O)Nc1ccc(-c2cc3ncccc3c(-c3ccn(C4(CC#N)CN(S(C)(=O)=O)C4)n3)n2)cn1 [Example 205, N-[5-(5-{1-[3-(cyanomethyl)-1-(methylsulfonyl)azetidin-3-yl]-1H-pyrazol-3-yl}-1,6-naphthyridin-7-yl)pyridin-2-yl]methanesulfonamide] | 120 | 149 | > 10000 | 17
22 | CS(=O)(=O)c1ccc(-c2cc3ncccc3c(-c3ccn(C4(CC#N)CN(S(C)(=O)=O)C4)n3)n2)cn1 [Example 206, [1-(methylsulfonyl)-3-(3-{7-[6-(methylsulfonyl)pyridin-3-yl]-1,6-naphthyridin-5-yl}-1H-pyrazol-1-yl)azetidin-3-yl]acetonitrile] | 2530 | 479 | > 10000 | 50
